# Measurements reported in PubChem BioAssay (NCI).
#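 Assay format: 96-well plates, 48-hour exposure. TGI: concentration producing complete growth inhibition.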
# Assays:
# Experiment in all cases: inhibition of tumour cell growth, NCI panel, 48 h
# U251 CNS = test system: U251 CNS
# HOP-62 NSCLC = test system: HOP-62 NSCLC
# RPMI-8226 leukemia = test system: RPMI-8226 leukemia
# HT29 colon = test system: HT29 colon
# SNB-19 CNS = test system: SNB-19 CNS
# HCC-2998 colon = test system: HCC-2998 colon
# COLO 205 colon = test system: COLO 205 colon
# OVCAR-4 ovarian = test system: OVCAR-4 ovarian
# IGROV1 ovarian = test system: IGROV1 ovarian
# MALME-3M melanoma = test system: MALME-3M melanoma
# MDA-N = test system: MDA-N
# HS 578T breast = test system: HS 578T breast
# A498 renal = test system: A498 renal
# HCT-116 colon = test system: HCT-116 colon
# CAKI-1 renal = test system: CAKI-1 renal
# UACC-62 melanoma = test system: UACC-62 melanoma
# OVCAR-3 ovarian = test system: OVCAR-3 ovarian
# CCRF-CEM leukemia = test system: CCRF-CEM leukemia
# UO-31 renal = test system: UO-31 renal
# HCT-15 colon = test system: HCT-15 colon
# MOLT-4 leukemia = test system: MOLT-4 leukemia
# 786-0 renal = test system: 786-0 renal
# A549 NSCLC = test system: A549 NSCLC
# SF-268 CNS = test system: SF-268 CNS
# SF-539 CNS = test system: SF-539 CNS
# KM12 colon = test system: KM12 colon
# SR leukemia = test system: SR leukemia
# OVCAR-5 ovarian = test system: OVCAR-5 ovarian
# NCI-H226 lung = test system: NCI-H226 lung
# MDA-MB-435 = test system: MDA-MB-435
# SW-620 colon = test system: SW-620 colon
# SF-295 CNS = test system: SF-295 CNS
# T-47D breast = test system: T-47D breast
# LOX IMVI melanoma = test system: LOX IMVI melanoma
# NCI/ADR-RES ovarian = test system: NCI/ADR-RES ovarian
# ACHN renal = test system: ACHN renal
# SK-MEL-2 melanoma = test system: SK-MEL-2 melanoma
# BT-549 breast = test system: BT-549 breast
# NCI-H23 lung = test system: NCI-H23 lung
# MCF7 breast = test system: MCF7 breast
# EKVX NSCLC = test system: EKVX NSCLC
# SK-OV-3 ovarian = test system: SK-OV-3 ovarian
# SK-MEL-5 melanoma = test system: SK-MEL-5 melanoma
# UACC-257 melanoma = test system: UACC-257 melanoma
# HOP-92 NSCLC = test system: HOP-92 NSCLC
# NCI-H460 lung = test system: NCI-H460 lung
# RXF 393 renal = test system: RXF 393 renal
# PC-3 prostate = test system: PC-3 prostate
# NCI-H522 lung = test system: NCI-H522 lung
# OVCAR-8 ovarian = test system: OVCAR-8 ovarian
# SN12C renal = test system: SN12C renal
# M14 melanoma = test system: M14 melanoma
# TK-10 renal = test system: TK-10 renal
# MDA-MB-231 breast = test system: MDA-MB-231 breast
# K-562 leukemia = test system: K-562 leukemia
# SNB-75 CNS = test system: SNB-75 CNS
# DU-145 prostate = test system: DU-145 prostate
# HL-60(TB) leukemia = test system: HL-60(TB) leukemia
smiles,measurement,setting,value
CCc1n[nH]c(=O)n1NC(=O)CCCC(=O)O,TGI,U251 CNS,> 100 µM
same,TGI,HOP-62 NSCLC,> 100 µM
same,TGI,RPMI-8226 leukemia,> 100 µM
same,TGI,HT29 colon,> 100 µM
same,TGI,SNB-19 CNS,> 100 µM
same,TGI,HCC-2998 colon,> 100 µM
same,TGI,COLO 205 colon,> 100 µM
same,TGI,OVCAR-4 ovarian,> 100 µM
same,TGI,IGROV1 ovarian,> 100 µM
same,TGI,MALME-3M melanoma,> 100 µM
same,TGI,MDA-N,> 100 µM
same,TGI,HS 578T breast,> 100 µM
same,TGI,A498 renal,> 100 µM
same,TGI,HCT-116 colon,> 100 µM
same,TGI,CAKI-1 renal,> 100 µM
same,TGI,UACC-62 melanoma,> 100 µM
same,TGI,OVCAR-3 ovarian,> 100 µM
same,TGI,CCRF-CEM leukemia,> 100 µM
same,TGI,UO-31 renal,> 100 µM
same,TGI,HCT-15 colon,> 100 µM
same,TGI,MOLT-4 leukemia,> 100 µM
same,TGI,786-0 renal,> 100 µM
same,TGI,A549 NSCLC,> 100 µM
same,TGI,SF-268 CNS,> 100 µM
same,TGI,SF-539 CNS,> 100 µM
same,TGI,KM12 colon,> 100 µM
same,TGI,SR leukemia,> 100 µM
same,TGI,OVCAR-5 ovarian,> 100 µM
same,TGI,NCI-H226 lung,> 100 µM
same,TGI,MDA-MB-435,> 100 µM
same,TGI,SW-620 colon,> 100 µM
same,TGI,SF-295 CNS,> 100 µM
same,TGI,T-47D breast,> 100 µM
same,TGI,LOX IMVI melanoma,> 100 µM
same,TGI,NCI/ADR-RES ovarian,> 100 µM
same,TGI,ACHN renal,> 100 µM
same,TGI,SK-MEL-2 melanoma,> 100 µM
same,TGI,BT-549 breast,> 100 µM
same,TGI,NCI-H23 lung,> 100 µM
same,TGI,MCF7 breast,> 100 µM
same,TGI,EKVX NSCLC,> 100 µM
same,TGI,SK-OV-3 ovarian,> 100 µM
same,TGI,SK-MEL-5 melanoma,> 100 µM
same,TGI,UACC-257 melanoma,> 100 µM
same,TGI,HOP-92 NSCLC,> 100 µM
same,TGI,NCI-H460 lung,> 100 µM
same,TGI,RXF 393 renal,> 100 µM
same,TGI,PC-3 prostate,> 100 µM
same,TGI,NCI-H522 lung,> 100 µM
same,TGI,OVCAR-8 ovarian,> 100 µM
same,TGI,SN12C renal,> 100 µM
same,TGI,M14 melanoma,> 100 µM
same,TGI,TK-10 renal,> 100 µM
same,TGI,MDA-MB-231 breast,> 100 µM
same,TGI,K-562 leukemia,> 100 µM
Cc1cc(C)c2cc(N)c(Cl)nc2n1,TGI,U251 CNS,> 100 µM
same,TGI,RPMI-8226 leukemia,> 100 µM
same,TGI,HT29 colon,> 100 µM
same,TGI,SNB-19 CNS,> 100 µM
same,TGI,COLO 205 colon,> 100 µM
same,TGI,IGROV1 ovarian,> 100 µM
same,TGI,MALME-3M melanoma,> 100 µM
same,TGI,MDA-N,> 100 µM
same,TGI,HS 578T breast,> 100 µM
same,TGI,HCT-116 colon,> 100 µM
same,TGI,CAKI-1 renal,> 100 µM
same,TGI,UACC-62 melanoma,> 100 µM
same,TGI,SNB-75 CNS,> 100 µM
same,TGI,CCRF-CEM leukemia,> 100 µM
same,TGI,DU-145 prostate,> 100 µM
same,TGI,UO-31 renal,> 100 µM
same,TGI,HCT-15 colon,> 100 µM
same,TGI,786-0 renal,> 100 µM
same,TGI,A549 NSCLC,> 100 µM
same,TGI,SF-268 CNS,> 100 µM
same,TGI,SF-539 CNS,> 100 µM
same,TGI,KM12 colon,> 100 µM
same,TGI,OVCAR-5 ovarian,> 100 µM
same,TGI,NCI-H226 lung,> 100 µM
same,TGI,MDA-MB-435,> 100 µM
same,TGI,SW-620 colon,> 100 µM
same,TGI,SF-295 CNS,> 100 µM
same,TGI,T-47D breast,> 100 µM
same,TGI,NCI/ADR-RES ovarian,> 100 µM
same,TGI,ACHN renal,> 100 µM
same,TGI,SK-MEL-2 melanoma,> 100 µM
same,TGI,BT-549 breast,> 100 µM
same,TGI,NCI-H23 lung,> 100 µM
same,TGI,HL-60(TB) leukemia,> 100 µM
same,TGI,MCF7 breast,> 100 µM
same,TGI,EKVX NSCLC,> 100 µM
same,TGI,SK-OV-3 ovarian,> 100 µM
same,TGI,SK-MEL-5 melanoma,> 100 µM
same,TGI,UACC-257 melanoma,> 100 µM
same,TGI,HOP-92 NSCLC,> 100 µM
same,TGI,NCI-H460 lung,> 100 µM
same,TGI,RXF 393 renal,> 100 µM
same,TGI,PC-3 prostate,> 100 µM
same,TGI,NCI-H522 lung,> 100 µM
same,TGI,OVCAR-8 ovarian,> 100 µM
same,TGI,SN12C renal,> 100 µM
same,TGI,M14 melanoma,> 100 µM
same,TGI,TK-10 renal,> 100 µM
same,TGI,MDA-MB-231 breast,> 100 µM
CCCc1cc(=O)oc2c3c(c4c(c12)OC(C)(C)CC4)O[C@H](C)[C@@H](C)[C@H]3O,TGI,U251 CNS,32.2 µM
same,TGI,HOP-62 NSCLC,35.3 µM
same,TGI,RPMI-8226 leukemia,18.8 µM
same,TGI,HT29 colon,22.7 µM
same,TGI,SNB-19 CNS,32.2 µM
same,TGI,HCC-2998 colon,31.8 µM
same,TGI,COLO 205 colon,33.6 µM
same,TGI,OVCAR-4 ovarian,28.6 µM
same,TGI,IGROV1 ovarian,30.8 µM
same,TGI,MALME-3M melanoma,37.9 µM
same,TGI,MDA-N,23.7 µM
same,TGI,HS 578T breast,50.2 µM
same,TGI,HCT-116 colon,29.4 µM
same,TGI,CAKI-1 renal,35.1 µM
same,TGI,UACC-62 melanoma,27.4 µM
same,TGI,OVCAR-3 ovarian,37.7 µM
same,TGI,SNB-75 CNS,31.3 µM
same,TGI,CCRF-CEM leukemia,33.8 µM
same,TGI,DU-145 prostate,29.8 µM
same,TGI,UO-31 renal,26.7 µM
same,TGI,HCT-15 colon,27.5 µM
same,TGI,MOLT-4 leukemia,27.8 µM
same,TGI,786-0 renal,29.8 µM
same,TGI,A549 NSCLC,64 µM
same,TGI,SF-268 CNS,35.1 µM
same,TGI,SF-539 CNS,41.9 µM
same,TGI,KM12 colon,28.7 µM
same,TGI,OVCAR-5 ovarian,31.6 µM
same,TGI,NCI-H226 lung,34.2 µM
same,TGI,MDA-MB-435,25.7 µM
same,TGI,SW-620 colon,35.8 µM
same,TGI,SF-295 CNS,32 µM
same,TGI,T-47D breast,29.8 µM
same,TGI,LOX IMVI melanoma,31.7 µM
same,TGI,NCI/ADR-RES ovarian,33.1 µM
same,TGI,SK-MEL-2 melanoma,49.1 µM
same,TGI,BT-549 breast,26.6 µM
same,TGI,NCI-H23 lung,30.3 µM
same,TGI,MCF7 breast,43.2 µM
same,TGI,EKVX NSCLC,26.2 µM
same,TGI,SK-OV-3 ovarian,31.7 µM
same,TGI,SK-MEL-5 melanoma,29.3 µM
same,TGI,UACC-257 melanoma,28.1 µM
same,TGI,HOP-92 NSCLC,33.3 µM
same,TGI,NCI-H460 lung,41.7 µM
same,TGI,RXF 393 renal,47.3 µM
same,TGI,PC-3 prostate,23.5 µM
same,TGI,OVCAR-8 ovarian,32.6 µM
same,TGI,SN12C renal,34.3 µM
same,TGI,M14 melanoma,37.2 µM
same,TGI,MDA-MB-231 breast,30.9 µM
same,TGI,K-562 leukemia,21.1 µM
